Assay results published in patent US6534524B1, “Indazole compounds and pharmaceutical compositions for inhibiting protein kinases, and methods for their use” (Agouron Pharmaceuticals, Inc., priority 1999, dated 2003).
Like-named read-outs stand apart in the source and are kept apart here.

Key:
[1] = Human liver microsome (HLM) assay; assay type: in vitro ADME; details: human liver microsomes, 5 μM test compound
Description: Human Liver Microsome (HLM) Assay Compound metabolism in human liver microsomes was measured by LC-MS analytical assay procedures as follows. […] (3 tubes per test compound-triplicate). […] The samples were then transferred to separate polypropylene microcentrifuge tubes and centrifuged at 14000 g for 10 min. (Fisher Micro […] M0017580). For each replicate (#1-3) at each timepoint (0 and 2 h), an aliquot sample of each test compound was combined into a single HPLC vial insert (6 total samples) for LC-MS analysis, which is described below.

[2] = Determination of inhibitor concentration in mouse plasma after intraperitoneal and oral dosing; assay type: in vivo; details: for concentration at 7 h: vehicle PEG400:H2O pH 2.3 30:70, read-out: Cmin (7 hr conc.)
How it was run: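 Mice dosed intraperitoneally or orally; blood taken by ocular bleed at 0.5, 1 and 4 h and by intracardiac puncture at 7 h. Plasma extracted with ethyl acetate after internal standard and NaOH addition, analysed by HPLC or LC-MS against a mouse-plasma standard curve.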

[3] = PO, 25 mg/kg, vehicle PEG400:H2O pH 2.3 30:70
[4] = IP, 25 mg/kg, vehicle PEG400:H2O pH 2.3 30:70
[5] = PO, 50 mg/kg, vehicle PEG400:H2O pH 2.3 30:70

Row | SMILES | plasma half-life (T1/2) [2, 3] [h] | AUC(0-t) ([2]; female, PO, 25 mg/kg, vehicle PEG400:H2O pH 2.3 30:70) [ng·h/mL] | Cmax ([2]; female, PO, 25 mg/kg, vehicle PEG400:H2O pH 2.3 30:70, read-out: Cmax) [ng/mL] | concentration at 7 h ([2]; female, PO, 25 mg/kg) [ng/mL] | AUClast [2, 3] [ng·h/mL] | % remain (HLM, 2 h) [1] [%] | AUClast [2, 4] [ng·h/mL] | plasma half-life (T1/2) [2, 4] [h] | plasma half-life (T1/2) [2, 5] [h] | concentration at 7 h ([2]; female, IP, 25 mg/kg) [ng/mL] | AUC(0-t) ([2]; female, PO, 50 mg/kg, vehicle PEG400:H2O pH 2.3 30:70) [ng·h/mL] | Cmax ([2]; female, PO, 50 mg/kg, vehicle PEG400:H2O pH 2.3 30:70, read-out: Cmax) [ng/mL] | concentration at 7 h ([2]; female, PO, 50 mg/kg) [ng/mL] | AUClast [2, 5] [ng·h/mL] | Cmax [2, 5] [ng/mL]
1 | O=C(NCC1CC1)c1ccccc1Sc1ccc2c(/C=C/c3ccccn3)n[nH]c2c1 [Example 35(v), 6-[2-(Cyclopropylmethyl-carbamoyl)phenylsulfanyl]-3-E-[2-(pyridin-2-yl)ethenyl]-1H-indazole] |  |  |  |  |  | 26 | 4865 | 0.9 | 1.0 | 16 | > 2950 | > 2000 | 26 |  | 
2 | CCNC(=O)c1ccccc1Sc1ccc2c(/C=C/c3ccccn3)n[nH]c2c1 [Example 35(x), 6-[2-(Ethylcarbamoyl)phenylsulfanyl]-3-E-[2-(pyridin-2-yl)ethenyl]-1H-indazole] |  |  |  |  |  | 37 | 951 | 3.2 | 0.9 | 48 |  |  | 16 | 3516 | 
3 | O=C(Nc1nccs1)c1ccccc1Sc1ccc2c(/C=C/c3ccccn3)n[nH]c2c1 [Example 35(y), 6-[2-(Thiazol-2-ylcarbamoyl)phenylsulfanyl]-3-E-[2-(pyridin-2-yl)ethenyl]-1H-indazole] |  |  |  |  |  | 7 | 159 | 1.2 | 1.2 | 2 |  |  | 1 | 58 | 
4 | CCOCCNC(=O)c1ccccc1Sc1ccc2c(/C=C/c3ccccn3)n[nH]c2c1 [Example 35(z), 6-[2-(2-(Ethoxy)ethylcarbamoyl)phenylsulfanyl]-3-E-[2-(pyridin-2-yl)ethenyl]-1H-indazole] |  |  |  |  |  | 2 | 837 | 1.8 | 1.6 | 22 |  |  | 14 | 1001 | 
5 | Cn1ccnc1/C=N/NC(=O)c1ccccc1Sc1ccc2c(/C=C/c3ccccn3)n[nH]c2c1 [Example 36(a)] | 1.5 |  |  | 17 | 605 | 58 |  |  |  |  |  |  |  |  | 
6 | COc1cccc(C(=O)Nc2cccc(C(=O)c3ccc4c(/C=C/c5ccccn5)n[nH]c4c3)c2)c1 [Example 41(bb), 6-[3-(3-Methoxybenzamido)benzoyl]-3-E-[2-(pyridin-2-yl)ethenyl]-1H-indazole] |  |  |  |  |  | 110 |  |  | 2.0 |  |  |  | 75 | 2178 | 596

Further lines, with some results ahead:

Row | plasma half-life (T1/2) [2, 3] [h] | AUC(0-t) ([2]; female, PO, 25 mg/kg, vehicle PEG400:H2O pH 2.3 30:70) [ng·h/mL] | Cmax ([2]; female, PO, 25 mg/kg, vehicle PEG400:H2O pH 2.3 30:70, read-out: Cmax) [ng/mL] | concentration at 7 h ([2]; female, PO, 25 mg/kg) [ng/mL] | AUClast [2, 3] [ng·h/mL] | SMILES | % remain (HLM, 2 h) [1] [%] | AUClast [2, 4] [ng·h/mL] | plasma half-life (T1/2) [2, 4] [h] | plasma half-life (T1/2) [2, 5] [h] | concentration at 7 h ([2]; female, IP, 25 mg/kg) [ng/mL] | AUC(0-t) ([2]; female, PO, 50 mg/kg, vehicle PEG400:H2O pH 2.3 30:70) [ng·h/mL] | Cmax ([2]; female, PO, 50 mg/kg, vehicle PEG400:H2O pH 2.3 30:70, read-out: Cmax) [ng/mL] | concentration at 7 h ([2]; female, PO, 50 mg/kg) [ng/mL] | AUClast [2, 5] [ng·h/mL] | Cmax [2, 5] [ng/mL]
7 | 2.2 | 7420 | 3370 | 86 |  | O=C(NOCC1CC1)c1ccccc1Sc1ccc2c(/C=C/c3ccccn3)n[nH]c2c1 [Example 35(s), 6-[2-((Cyclopropyl)methoxycarbamoyl)phenylsulfanyl]-3-E-[2-(pyridin-2-yl)ethenyl]-1H-indazole] | 16 |  |  |  |  |  |  |  |  | 
8 | 1.1 |  |  | 41 | 3199 | CCCONC(=O)c1ccccc1Sc1ccc2c(/C=C/c3ccccn3)n[nH]c2c1 [Example 35(t), 6-[2-(n-Propoxycarbamoyl)phenylsulfanyl]-3-E-[2-(pyridin-2-yl)ethenyl]-1H-indazole] | 7 |  |  |  |  |  |  |  |  | 
9 | 1.2 |  |  | 9 | 2419 | CC(C)ONC(=O)c1cccc(F)c1Sc1ccc2c(/C=C/c3ccccn3)n[nH]c2c1 [Example 37(c), 6-[6-Fluoro-2-(isopropoxycarbamoyl)phenylsulfanyl]-3-E-[2-(pyridin-2-yl)ethenyl]-1H-indazole] | 21 |  |  |  |  |  |  |  |  | 
10 | 0.8 |  |  | 1 | 654 | CC(C)=CC(=O)Nc1cccc(C(=O)c2ccc3c(/C=C/c4ccccn4)n[nH]c3c2)c1 [Example 41(dd), 6-[3(3,3-Dimethylacrylamido)benzoyl]-3-E-[2-(pyridin-2-yl)ethenyl]-1H-indazole] | 7 |  |  |  |  |  |  |  |  | 
